According to ChEMBL document CHEMBL4346729, “The discovery of novel 3-aryl-indazole derivatives as peripherally restricted pan-Trk inhibitors for the treatment of pain” (Bioorg Med Chem Lett, 2019):

Assays:
[1] = target: BDNF/NT-3 growth factors receptor (Homo sapiens, UniProt Q16620); assay: Inhibition of human GST-tagged TRKB (456 to 822) expressed in baculovirus expression system using TK-biotin peptide as substrate incubated for 45 min by TR-FRET assay
[2] = target: Casein kinase I isoform delta (Homo sapiens) (UniProt P48730); assay: Inhibition of CK1-delta (unknown origin) at 20 nM using phosphatidylserine as substrate incubated for 60 mins in presence of [33P]-ATP by scintillation counting method
Casein kinase I isoform delta (Homo sapiens), sequence (P48730 whole entry, looked up, canonical isoform): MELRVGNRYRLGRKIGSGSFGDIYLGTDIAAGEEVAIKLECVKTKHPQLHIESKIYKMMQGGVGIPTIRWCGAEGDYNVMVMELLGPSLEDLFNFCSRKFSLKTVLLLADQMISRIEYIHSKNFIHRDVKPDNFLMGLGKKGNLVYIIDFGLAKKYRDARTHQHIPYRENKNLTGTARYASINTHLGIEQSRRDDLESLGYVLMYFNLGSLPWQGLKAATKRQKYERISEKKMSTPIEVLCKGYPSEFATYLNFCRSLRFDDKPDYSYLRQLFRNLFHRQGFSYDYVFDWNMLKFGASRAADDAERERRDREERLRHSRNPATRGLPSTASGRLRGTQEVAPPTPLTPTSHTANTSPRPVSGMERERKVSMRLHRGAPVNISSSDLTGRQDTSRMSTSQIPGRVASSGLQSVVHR

[3] = target: Ribosomal protein S6 kinase beta-1 (Homo sapiens) (UniProt P23443); assay: Inhibition of recombinant human N-terminal GST/His6-tagged S6K internal ([…]) expressed in Sf9 insect cells at 20 nM using phosphatidylserine as substrate incubated for 60 mins in presence of [33P]-ATP by scintillation counting method
Ribosomal protein S6 kinase beta-1 (Homo sapiens), sequence (P23443 whole entry, looked up): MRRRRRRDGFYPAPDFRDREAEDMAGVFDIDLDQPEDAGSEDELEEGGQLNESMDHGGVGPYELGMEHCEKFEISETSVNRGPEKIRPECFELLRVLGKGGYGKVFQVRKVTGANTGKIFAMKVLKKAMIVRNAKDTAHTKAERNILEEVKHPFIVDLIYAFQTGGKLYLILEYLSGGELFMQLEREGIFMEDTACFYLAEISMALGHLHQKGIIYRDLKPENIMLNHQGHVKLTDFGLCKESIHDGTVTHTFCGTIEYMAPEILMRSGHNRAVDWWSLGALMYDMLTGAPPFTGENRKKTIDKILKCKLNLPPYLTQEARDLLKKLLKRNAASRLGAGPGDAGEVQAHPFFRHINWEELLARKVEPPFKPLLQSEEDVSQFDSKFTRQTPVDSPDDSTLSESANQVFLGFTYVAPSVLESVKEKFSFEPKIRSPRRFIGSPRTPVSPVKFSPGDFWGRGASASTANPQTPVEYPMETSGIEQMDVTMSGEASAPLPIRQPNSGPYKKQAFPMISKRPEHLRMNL

[4] = target: Casein kinase II subunit alpha (Homo sapiens) (UniProt P68400); assay: Inhibition of recombinant human full length N-terminal GST and C-terminal His6-tagged CK2-alpha (M1 to Q391) expressed in Sf9 insect cells at 20 nM using phosphatidylserine as substrate incubated for 60 mins in presence of [33P]-ATP by scintillation counting method
Casein kinase II subunit alpha (Homo sapiens), sequence (P68400 whole entry, looked up): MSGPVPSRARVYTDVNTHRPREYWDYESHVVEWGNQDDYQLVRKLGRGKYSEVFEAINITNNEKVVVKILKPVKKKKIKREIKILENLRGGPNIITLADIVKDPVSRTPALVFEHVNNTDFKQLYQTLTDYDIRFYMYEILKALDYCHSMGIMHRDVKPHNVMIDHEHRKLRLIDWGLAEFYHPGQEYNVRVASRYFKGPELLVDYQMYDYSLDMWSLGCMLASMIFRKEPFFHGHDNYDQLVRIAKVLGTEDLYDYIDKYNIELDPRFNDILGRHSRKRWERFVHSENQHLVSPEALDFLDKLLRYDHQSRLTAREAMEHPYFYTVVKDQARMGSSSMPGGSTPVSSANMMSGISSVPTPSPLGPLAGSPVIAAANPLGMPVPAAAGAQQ

[5] = target: Inhibitor of nuclear factor kappa-B kinase subunit beta (Homo sapiens) (UniProt O14920); assay: Inhibition of recombinant human full length N-terminal GST/His6-tagged IKK-beta (M1 to S756) expressed in Sf9 insect cells at 20 nM using phosphatidylserine as substrate incubated for 60 mins in presence of [33P]-ATP by scintillation counting method
Inhibitor of nuclear factor kappa-B kinase subunit beta (Homo sapiens), sequence (O14920 whole entry): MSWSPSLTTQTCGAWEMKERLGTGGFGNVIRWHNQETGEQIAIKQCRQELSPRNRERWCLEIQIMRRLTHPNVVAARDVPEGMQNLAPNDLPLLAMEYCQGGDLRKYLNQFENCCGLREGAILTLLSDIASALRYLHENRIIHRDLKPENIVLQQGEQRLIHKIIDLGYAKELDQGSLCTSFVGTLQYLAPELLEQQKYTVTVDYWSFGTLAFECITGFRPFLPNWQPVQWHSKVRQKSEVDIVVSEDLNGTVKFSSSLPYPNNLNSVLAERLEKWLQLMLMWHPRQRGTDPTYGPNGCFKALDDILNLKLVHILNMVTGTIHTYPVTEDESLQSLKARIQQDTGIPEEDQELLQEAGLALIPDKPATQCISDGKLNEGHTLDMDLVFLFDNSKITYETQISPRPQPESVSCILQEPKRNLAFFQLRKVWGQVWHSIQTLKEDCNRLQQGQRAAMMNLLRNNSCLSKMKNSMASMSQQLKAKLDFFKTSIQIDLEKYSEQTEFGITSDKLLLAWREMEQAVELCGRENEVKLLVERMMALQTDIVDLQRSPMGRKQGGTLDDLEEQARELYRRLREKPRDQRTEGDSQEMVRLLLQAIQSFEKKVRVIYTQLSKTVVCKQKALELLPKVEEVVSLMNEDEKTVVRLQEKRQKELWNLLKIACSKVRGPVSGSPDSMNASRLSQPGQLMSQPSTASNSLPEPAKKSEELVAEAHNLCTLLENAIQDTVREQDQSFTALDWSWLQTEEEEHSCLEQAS

[6] = target: Cyclin-dependent kinase 2/cyclin E1 (Homo sapiens) (UniProt P24864+P24941); assay: Inhibition of CDK2/Cyclin-E1 (unknown origin) at 20 nM using Phosphatidylserine as substrate incubated for 60 mins in presence of [33P]-ATP by scintillation counting method; type: protein-complex assay
[7] = target: Dual specificity tyrosine-phosphorylation-regulated kinase 1A (Homo sapiens) (UniProt Q13627); assay: Inhibition of DYRK1A (unknown origin) at 20 nM using phosphatidylserine as substrate incubated for 60 mins in presence of [33P]-ATP by scintillation counting method
[8] = target: MAP kinase-activated protein kinase 5 (Homo sapiens) (UniProt Q8IW41); assay: Inhibition of recombinant human full length MAPKAPK5 (M1 to Q471) expressed in Escherichia coli at 20 nM using phosphatidylserine as substrate incubated for 60 mins in presence of [33P]-ATP by scintillation counting method
MAP kinase-activated protein kinase 5 (Homo sapiens), sequence (Q8IW41 whole entry): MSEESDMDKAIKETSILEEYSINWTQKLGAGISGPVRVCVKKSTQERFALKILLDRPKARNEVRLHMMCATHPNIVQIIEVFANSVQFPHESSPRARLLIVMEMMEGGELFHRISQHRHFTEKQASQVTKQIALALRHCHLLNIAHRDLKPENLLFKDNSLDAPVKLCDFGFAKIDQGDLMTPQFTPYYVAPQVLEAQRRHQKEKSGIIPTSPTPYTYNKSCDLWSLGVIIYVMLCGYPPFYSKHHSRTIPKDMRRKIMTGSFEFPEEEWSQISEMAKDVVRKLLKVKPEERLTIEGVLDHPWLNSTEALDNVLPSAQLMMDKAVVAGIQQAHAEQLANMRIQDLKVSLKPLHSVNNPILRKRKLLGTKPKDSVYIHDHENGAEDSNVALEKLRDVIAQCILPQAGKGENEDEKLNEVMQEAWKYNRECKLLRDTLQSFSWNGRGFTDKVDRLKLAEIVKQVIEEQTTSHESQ

[9] = target: Proto-oncogene tyrosine-protein kinase Src (Homo sapiens) (UniProt P12931); assay: Inhibition of recombinant human full length N-terminal GST and C-terminal His6-tagged SRC (M1 to L536) expressed in Sf9 insect cells at 20 nM using phosphatidylserine as substrate incubated for 60 mins in presence of [33P]-ATP by scintillation counting method
Proto-oncogene tyrosine-protein kinase Src (Homo sapiens), sequence (P12931 2-536 limits assumed): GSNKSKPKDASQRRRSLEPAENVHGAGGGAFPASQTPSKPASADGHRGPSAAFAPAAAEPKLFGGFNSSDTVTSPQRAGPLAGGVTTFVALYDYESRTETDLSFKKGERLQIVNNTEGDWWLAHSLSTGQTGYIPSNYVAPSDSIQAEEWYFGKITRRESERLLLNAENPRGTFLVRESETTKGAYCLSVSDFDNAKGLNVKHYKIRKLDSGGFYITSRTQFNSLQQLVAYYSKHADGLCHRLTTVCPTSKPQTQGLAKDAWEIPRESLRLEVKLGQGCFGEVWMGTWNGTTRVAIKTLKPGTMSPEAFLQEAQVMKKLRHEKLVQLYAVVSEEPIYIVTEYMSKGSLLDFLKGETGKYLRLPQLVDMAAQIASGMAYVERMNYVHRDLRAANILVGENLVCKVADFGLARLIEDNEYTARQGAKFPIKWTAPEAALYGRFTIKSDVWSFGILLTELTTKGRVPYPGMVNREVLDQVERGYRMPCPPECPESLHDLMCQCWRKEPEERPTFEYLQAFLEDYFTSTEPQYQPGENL

BDNF/NT-3 growth factors receptor, sequence (Q16620 whole entry, canonical isoform): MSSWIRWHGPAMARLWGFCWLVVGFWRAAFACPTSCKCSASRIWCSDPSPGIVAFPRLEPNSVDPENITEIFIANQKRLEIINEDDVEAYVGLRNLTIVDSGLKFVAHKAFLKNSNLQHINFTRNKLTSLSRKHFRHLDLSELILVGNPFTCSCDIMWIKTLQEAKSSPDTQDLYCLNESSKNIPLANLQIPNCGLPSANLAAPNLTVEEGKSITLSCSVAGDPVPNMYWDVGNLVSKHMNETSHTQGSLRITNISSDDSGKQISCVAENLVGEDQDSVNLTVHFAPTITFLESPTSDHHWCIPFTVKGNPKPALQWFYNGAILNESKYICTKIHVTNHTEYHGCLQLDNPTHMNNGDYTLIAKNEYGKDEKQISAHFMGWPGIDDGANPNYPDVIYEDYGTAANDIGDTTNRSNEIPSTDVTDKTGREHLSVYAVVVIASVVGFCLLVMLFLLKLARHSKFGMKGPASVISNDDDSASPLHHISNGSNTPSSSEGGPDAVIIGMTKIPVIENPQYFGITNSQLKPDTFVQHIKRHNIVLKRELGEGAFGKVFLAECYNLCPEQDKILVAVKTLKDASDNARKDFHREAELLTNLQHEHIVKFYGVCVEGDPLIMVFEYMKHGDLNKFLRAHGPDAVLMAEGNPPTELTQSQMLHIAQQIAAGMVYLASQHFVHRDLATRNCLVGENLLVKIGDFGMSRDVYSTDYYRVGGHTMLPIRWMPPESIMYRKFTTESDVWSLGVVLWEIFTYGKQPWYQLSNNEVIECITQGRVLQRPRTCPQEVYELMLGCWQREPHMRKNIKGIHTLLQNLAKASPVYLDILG

IC50 [1]: 0.2 nM | inhibition [2]: 5% | inhibition [3]: 3% | inhibition [4]: 7% | inhibition [5]: -7% | inhibition [6]: 5% | inhibition [7]: -7% | inhibition [8]: 6% | inhibition [9]: 2%
Compound: Cn1cc(-c2n[nH]c3ccc(NCc4cc(F)ccc4S(C)(=O)=O)cc23)cn1
